Measurements published in US6479435B1, “Diaryl ethers and processes for their preparation and herbicidal and desiccant compositions containing them” (ISK Americas Incorporated, priority 1997, dated 2002).

Experiments:
Type in all cases: in vivo
[1] = tested on: Johnsongrass (Sorghum halepense, SORHA); test: Pre-emerge greenhouse herbicide test, phytotoxicity rating; settings: 14 days after application, rating scale 0-100
Source text: (§1) A standard greenhouse herbicide activity screening system was used to evaluate the herbicidal efficacy and crop safety of these test compounds. Six broadleaf weed species including redroot pigweed (Amaranthus retroflexus, AMARE), velvetleaf (Abutilon theophrasti, ABUTH), sicklepod (Cassia obtusifolia, CASOB), ivyleaf morningglory (Ipomoea hederacea, IPOHE), lambsquarters (Chenopodium album, CHEAL) and common ragweed (Ambrosia artemisiifolia L., AMBEL) were used as test species. Four grass weed species including green foxtail (Setaria viridis, SETVI), barnyardgrass (Echinochloa crusgalli, ECHCG), Johnsongrass (Sorghum halepense, SORHA), and large crabgrass (Digitaria sanguinalis, DIGSA) were also used. In addition, three crop species, field corn (Zea mays L., var. Dekalb 535, CORN), soybean (Glycine max L., var. Pella 86, SOY), and upland rice (Oryza sp., var.Tebonnet, RICE) were included.
(§2) All plants were grown in 10 cm square plastic pots which were filled with a sandy loam soil mix. For preemerge tests, seeds were planted one day prior to application of the test compounds. Immediately after application, test units of the pre-emerge applications were watered at the soil surface to incorporate the test materials. Subsequently, these test units were bottom-watered.
(§3) All test compounds were dissolved in acetone and applied to the test units in a volume of 187 l/ha. Test materials were applied at rates ranging from 125 g ai/ha to 1000 g ai/ha using a track sprayer equipped with a TJ8001E even flow flat fan spray nozzle. Plants were arranged on a shelf so that the top of the canopy (post-emerge) or top of the soil surface (pre-emerge) was 40-45 cm below the nozzle. Pressurized air was used to force the test solution through the nozzle as it was mechanically advanced (via electrically driven chain drive) over the top of all test plants/pots. This application simulates a typical commercial field herbicide application.
(§4) At 14 days after application of the test materials, phytotoxicity ratings were recorded. A rating scale of 0-100 was used as previously described in Research Methods in Weed Science, 2nd edition, B. Truelove, Ed., Southern Weed Science Society, Auburn University, Auburn, Ala., 1977. Briefly, “0” corresponds to no damage and “100” corresponds to complete death of all plants in the test unit. This scale was used both to determine efficacy against weed species and damage to crop species. Herbicide activity data for various compounds of this invention, which are shown by compound number in Tables 1-9, are shown in Tables 13 and 14.

[2] = tested on: barnyardgrass (Echinochloa crusgalli, ECHCG); test: as above; settings: 14 days after application, rating scale 0-100
Source text: as §1, §2, §3, §4

[3] = tested on: green foxtail (Setaria viridis, SETVI); test: as above; settings: 14 days after application, rating scale 0-100
Source text: as §1, §2, §3, §4

[4] = tested on: ivyleaf morningglory (Ipomoea hederacea, IPOHE); test: as above; settings: 14 days after application, rating scale 0-100
Source text: as §1, §2, §3, §4

[5] = tested on: lambsquarters (Chenopodium album, CHEAL); test: as above; settings: 14 days after application, rating scale 0-100
Source text: as §1, §2, §3, §4

[6] = tested on: large crabgrass (Digitaria sanguinalis, DIGSA); test: as above; settings: 14 days after application, rating scale 0-100
Source text: as §1, §2, §3, §4

[7] = tested on: redroot pigweed (Amaranthus retroflexus, AMARE); test: as above; settings: 14 days after application, rating scale 0-100
Source text: as §1, §2, §3, §4

[8] = tested on: sicklepod (Cassia obtusifolia, CASOB); test: as above; settings: 14 days after application, rating scale 0-100
Source text: as §1, §2, §3, §4

[9] = tested on: velvetleaf (Abutilon theophrasti, ABUTH); test: as above; settings: 14 days after application, rating scale 0-100
Source text: as §1, §2, §3, §4

[10] = tested on: field corn (Zea mays L., var. Dekalb 535, CORN); test: Pre-emerge greenhouse test, crop damage rating; settings: 14 days after application, rating scale 0-100
Source text: as §1, §2, §3, §4

[11] = tested on: upland rice (Oryza sp., var.Tebonnet, RICE); test: Pre-emerge greenhouse test, crop damage rating; settings: 14 days after application, rating scale 0-100
Source text: as §1, §2, §3, §4

[12] = tested on: soybean (Glycine max L., var. Pella 86, SOY); test: Pre-emerge greenhouse test, crop damage rating; design: key to SOY crop damage rating: 0 = no damage, 100 = complete death of all plants; settings: 14 days after application, rating scale 0-100
Source text: as §1, §2, §3, §4

[13] = tested on: Johnsongrass (Sorghum halepense, SORHA); test: Post-emerge greenhouse herbicide test, phytotoxicity rating; settings: 14 days after application; for phytotoxicity rating SORHA: scale 0-100
Source text: as §1, §3
(§5) In the post-emerge test, a commercial non-ionic surfactant was also included (0.25% v/v) to enhance wetting of the leaf surfaces Qf target plants at rates ranging from 63 g ai/ha to 1000 g ai/ha. For post-emerge tests, seeds were planted 8-21 days prior to the test to allow emergence and good foliage development prior to application of the test substances. At the time of the post-emerge application, plants of all species were usually at the 2-3 leaf stage of development. Post-emerge test units were always bottom-watered.
as §4

[14] = tested on: barnyardgrass (Echinochloa crusgalli, ECHCG); test: as above; settings: 14 days after application; for phytotoxicity rating ECHCG: scale 0-100
Source text: as §1, §3, §5, §4

[15] = tested on: green foxtail (Setaria viridis, SETVI); test: as above; settings: 14 days after application; for phytotoxicity rating SETVI: scale 0-100
Source text: as §1, §3, §5, §4

[16] = tested on: ivyleaf morningglory (Ipomoea hederacea, IPOHE); test: as above; settings: 14 days after application; for phytotoxicity rating IPOHE: scale 0-100
Source text: as §1, §3, §5, §4

[17] = tested on: lambsquarters (Chenopodium album, CHEAL); test: as above; settings: 14 days after application; for phytotoxicity rating CHEAL: scale 0-100
Source text: as §1, §3, §5, §4

[18] = tested on: large crabgrass (Digitaria sanguinalis, DIGSA); test: as above; settings: 14 days after application; for phytotoxicity rating DIGSA: scale 0-100
Source text: as §1, §3, §5, §4

[19] = tested on: redroot pigweed (Amaranthus retroflexus, AMARE); test: as above; settings: 14 days after application; for phytotoxicity rating AMARE: scale 0-100
Source text: as §1, §3, §5, §4

[20] = tested on: sicklepod (Cassia obtusifolia, CASOB); test: as above; settings: 14 days after application; for phytotoxicity rating CASOB: scale 0-100
Source text: as §1, §3, §5, §4

[21] = tested on: velvetleaf (Abutilon theophrasti, ABUTH); test: as above; settings: 14 days after application; for phytotoxicity rating ABUTH: scale 0-100
Source text: as §1, §3, §5, §4

[22] = tested on: field corn (Zea mays L., var. Dekalb 535, CORN); test: Post-emerge greenhouse test, crop damage rating; settings: 14 days after application; for crop damage rating CORN: scale 0-100
Source text: as §1, §3, §5, §4

[23] = tested on: upland rice (Oryza sp., var.Tebonnet, RICE); test: Post-emerge greenhouse test, crop damage rating; settings: 14 days after application; for crop damage rating RICE: scale 0-100
Source text: as §1, §3, §5, §4

[24] = tested on: soybean (Glycine max L., var. Pella 86, SOY); test: Post-emerge greenhouse test, crop damage rating; design: key to crop damage rating SOY: 0-100 scale: 0 = no damage, 100 = complete death of all plants; settings: 14 days after application; for crop damage rating SOY: scale 0-100
Source text: as §1, §3, §5, §4

Nn1c(C(F)(F)F)cc(=O)n(-c2cc(Oc3cccc(C(F)(F)F)c3)c(Cl)cc2F)c1=O [Compound 9-25, 1-Amino-3-[4-chloro-2-fluoro-5-(3-trifluoromethylphenoxy)phenyl]-6-trifluoro-methyl-1,2,3,4-tetrahydropyrimidine-2,4-dione]
0: phytotoxicity rating ECHCG ([14]; rate 500 g ai/ha) | phytotoxicity rating DIGSA ([18]; rate 63 g ai/ha)
30: CASOB phytotoxicity rating ([8]; Rate 125 g al/ha) | phytotoxicity rating SETVI ([15]; rate 63 g ai/ha)
90: IPOHE phytotoxicity rating ([4]; Rate 500 g al/ha) | RICE crop damage rating ([11]; Rate 500 g al/ha)
15: crop damage rating CORN ([22]; rate 63 g ai/ha)
20: CORN crop damage rating ([10]; Rate 125 g al/ha)
100: SORHA phytotoxicity rating ([1]; Rate 500 g al/ha) | SETVI phytotoxicity rating ([3]; Rate 125 g al/ha) | SETVI phytotoxicity rating ([3]; Rate 500 g al/ha) | CHEAL phytotoxicity rating ([5]; Rate 125 g al/ha) | CHEAL phytotoxicity rating ([5]; Rate 500 g al/ha) | DIGSA phytotoxicity rating ([6]; Rate 500 g al/ha) | AMARE phytotoxicity rating ([7]; Rate 125 g al/ha) | AMARE phytotoxicity rating ([7]; Rate 500 g al/ha) | ABUTH phytotoxicity rating ([9]; Rate 125 g al/ha) | ABUTH phytotoxicity rating ([9]; Rate 500 g al/ha) | phytotoxicity rating IPOHE ([16]; rate 63 g ai/ha) | phytotoxicity rating IPOHE ([16]; rate 500 g ai/ha) | phytotoxicity rating CHEAL ([17]; rate 63 g ai/ha) | phytotoxicity rating CHEAL ([17]; rate 500 g ai/ha) | phytotoxicity rating AMARE ([19]; rate 63 g ai/ha) | phytotoxicity rating AMARE ([19]; rate 500 g ai/ha) | phytotoxicity rating CASOB ([20]; rate 500 g ai/ha) | phytotoxicity rating ABUTH ([21]; rate 500 g ai/ha)
95: ECHCG phytotoxicity rating ([2]; Rate 500 g al/ha) | phytotoxicity rating ABUTH ([21]; rate 63 g ai/ha)
80: SORHA phytotoxicity rating ([1]; Rate 125 g al/ha) | DIGSA phytotoxicity rating ([6]; Rate 125 g al/ha) | CASOB phytotoxicity rating ([8]; Rate 500 g al/ha) | SOY crop damage rating ([12]; Rate 500 g al/ha) | phytotoxicity rating SETVI ([15]; rate 500 g ai/ha) | crop damage rating SOY ([24]; rate 500 g ai/ha)
40: CORN crop damage rating ([10]; Rate 500 g al/ha) | RICE crop damage rating ([11]; Rate 125 g al/ha)
50: SOY crop damage rating ([12]; Rate 125 g al/ha) | phytotoxicity rating CASOB ([20]; rate 63 g ai/ha)
60: phytotoxicity rating DIGSA ([18]; rate 500 g ai/ha) | crop damage rating SOY ([24]; rate 63 g ai/ha)
35: crop damage rating CORN ([22]; rate 500 g ai/ha) | crop damage rating RICE ([23]; rate 500 g ai/ha)
10: phytotoxicity rating SORHA ([13]; rate 63 g ai/ha) | phytotoxicity rating ECHCG ([14]; rate 63 g ai/ha)
70: ECHCG phytotoxicity rating ([2]; Rate 125 g al/ha) | IPOHE phytotoxicity rating ([4]; Rate 125 g al/ha) | phytotoxicity rating SORHA ([13]; rate 500 g ai/ha)
5: crop damage rating RICE ([23]; rate 63 g ai/ha)

Nc1ccc(Oc2cc(-n3c(=O)cc4n(c3=O)CCC4)c(F)cc2Cl)cc1 [Compound 5-3]
0: phytotoxicity rating ECHCG ([2]; 1000 g ai/ha) | phytotoxicity rating IPOHE ([4]; 1000 g ai/ha) | phytotoxicity rating CHEAL ([5]; 1000 g ai/ha) | crop damage rating CORN ([10]; 1000 g ai/ha) | SORHA phytotoxicity rating (0-100) ([13]; 1000 g al/ha) | ECHCG phytotoxicity rating (0-100) ([14]; 1000 g al/ha) | SETVI phytotoxicity rating (0-100) ([15]; 1000 g al/ha) | IPOHE phytotoxicity rating (0-100) ([16]; 1000 g al/ha) | CHEAL phytotoxicity rating (0-100) ([17]; 1000 g al/ha) | DIGSA phytotoxicity rating (0-100) ([18]; 1000 g al/ha) | AMARE phytotoxicity rating (0-100) ([19]; 1000 g al/ha) | CASOB phytotoxicity rating (0-100) ([20]; 1000 g al/ha) | ABUTH phytotoxicity rating (0-100) ([21]; 1000 g al/ha) | CORN crop damage rating (0-100) ([22]; 1000 g al/ha) | RICE crop damage rating (0-100) ([23]; 1000 g al/ha) | SOY crop damage rating (0-100) ([24]; 1000 g al/ha)
40: phytotoxicity rating SORHA ([1]; 1000 g ai/ha) | crop damage rating SOY ([12]; 1000 g ai/ha)
100: phytotoxicity rating AMARE ([7]; 1000 g ai/ha)
70: phytotoxicity rating DIGSA ([6]; 1000 g ai/ha)
20: phytotoxicity rating SETVI ([3]; 1000 g ai/ha) | crop damage rating RICE ([11]; 1000 g ai/ha)
99: phytotoxicity rating ABUTH ([9]; 1000 g ai/ha)
10: phytotoxicity rating CASOB ([8]; 1000 g ai/ha)
